Each block holds one compound with its values, some of them ahead of it. Non-standard residues stand in square brackets, D forms with d. Residues, ends and D or L forms follow the SMILES beside them. *: point of attachment. Cbz = O=C(OCc1ccccc1)*; Bn = c1ccc(C*)cc1
Columns and labels:
[1] = biological target: T1, Protein farnesyltransferase (Homo sapiens, UniProt P49354+P49356); experiment: Activity against Farnesyltransferase; type: protein-complex assay
[2] = biological target: T1, Protein farnesyltransferase; experiment: Activity against human Farnesyltransferase; type: protein-complex assay
[3] = biological target: Protein farnesyltransferase (Mus musculus) (UniProt Q61239+Q8K2I1); experiment: (§1) Inhibition of Ras-processing in H-Ras transformed NIH3T3 fibroblasts; type: functional, cell-based
[4] = biological target: T1, Protein farnesyltransferase; experiment: Inhibitory activity against farnesyl pyrophosphate; type: protein-complex assay
[5] = biological target: Protein farnesyltransferase (Bos taurus, UniProt P29702+P49355); experiment: Activity against bovine Farnesyltransferase; type: protein-complex assay
[6] = Activity against Geranylgeranyl transferase type I
NIH3T3 [7] = experiment: Inhibition of Ras processing in v-Ras-transformed NIH 3T3 cell growth in soft agar at 50 uM; type: functional, cell-based; conditions: Mus musculus
[8] = biological target: Protein farnesyltransferase (Mus musculus, UniProt Q61239+Q8K2I1); experiment: as §1; type: functional, cell-based
[9] = biological target: T1, Protein farnesyltransferase; experiment: Inhibitory activity against Ras Farnesyltransferase; type: protein-complex assay
[10] = Inhibition of K-Ras-transformed fibrosarcoma growth; type: functional
[11] = biological target: T1, Protein farnesyltransferase; experiment: Activity against Ras Farnesyltransferase from Burkett's lymphoma.; type: protein-complex assay
[12] = biological target: T1, Protein farnesyltransferase; experiment: Activity against Ras Farnesyltransferase from human colon carcinoma; type: protein-complex assay
Farnesyltransferase = biological target: T2, Farnesyltransferase (Saccharomyces cerevisiae S288c, UniProt P22007+P29703); experiment: Activity against yeast Farnesyltransferase; type: protein-complex assay
T2 sequence (P29703 whole entry): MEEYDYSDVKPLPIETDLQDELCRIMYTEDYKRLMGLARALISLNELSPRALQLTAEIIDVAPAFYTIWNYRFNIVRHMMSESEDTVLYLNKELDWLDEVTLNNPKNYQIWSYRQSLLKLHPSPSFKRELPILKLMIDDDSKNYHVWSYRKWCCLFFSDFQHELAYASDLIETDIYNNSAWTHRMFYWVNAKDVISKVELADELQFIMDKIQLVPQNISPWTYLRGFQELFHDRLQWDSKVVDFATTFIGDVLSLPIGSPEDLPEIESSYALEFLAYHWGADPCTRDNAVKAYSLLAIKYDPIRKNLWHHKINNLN
T2 sequence (P22007 whole entry): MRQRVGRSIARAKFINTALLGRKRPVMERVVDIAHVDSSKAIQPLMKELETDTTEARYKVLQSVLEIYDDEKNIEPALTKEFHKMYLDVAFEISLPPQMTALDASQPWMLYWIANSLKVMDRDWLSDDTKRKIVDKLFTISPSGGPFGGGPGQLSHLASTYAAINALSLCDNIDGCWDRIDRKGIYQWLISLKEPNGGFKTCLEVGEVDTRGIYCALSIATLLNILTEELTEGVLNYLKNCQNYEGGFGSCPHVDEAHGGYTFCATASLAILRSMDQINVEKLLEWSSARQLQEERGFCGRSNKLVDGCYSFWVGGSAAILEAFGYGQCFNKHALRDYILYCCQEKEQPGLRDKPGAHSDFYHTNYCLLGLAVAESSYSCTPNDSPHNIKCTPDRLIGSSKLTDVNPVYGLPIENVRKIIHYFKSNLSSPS

[13] = biological target: Protein farnesyltransferase (Rattus norvegicus, UniProt Q02293+Q04631); experiment: Activity against rat Farnesyltransferase; type: protein-complex assay
NIH3T3 [14] = experiment: Inhibition in clonogenic assay against H-Ras-transformed NIH3T3 cells; type: functional, cell-based; conditions: Mus musculus
NIH3T3 [15] = experiment: Activity against H-Ras transformed NIH3T3 fibroblasts in a clonogenic assay; type: functional, cell-based; conditions: Mus musculus
Mus musculus = species: Mus musculus; experiment: Percent increase in life span of NIH3T3 cell tumor-bearing nude mice; type: functional
Homo sapiens = experiment: Inhibition of EJ-1 human bladder carcinoma growth at 100 mg/kg; type: functional
[16] = biological target: T1, Protein farnesyltransferase; experiment: Inhibition of H-Ras Farnesyltransferase; type: protein-complex assay

IC50 [2]: 0.06 µM
SMILES: CCCCCCCCCCCCCC/C(C(=O)O)=C(\C)C(=O)O [CHAETOMELLIC ACID A]

Concentration [3]: 1 µM
Ki [4]: 0.83 µM
SMILES: CC(C)=CCC/C(C)=C/CC/C(C)=C/CCP(=O)(O)CP(=O)(O)O

IC50 [9]: 0.033 µM
SMILES: CC(C)=CCC/C(C)=C/CC/C(C)=C/C(=O)NC(CCC(=O)N[C@H](C(=O)N[C@@H](CC(C)C)C(=O)N[C@@H](CO)C(=O)O)C(C)C)C(=O)O (some centres undefined)

IC50 [1]: 0.083 µM
SMILES: CC(C)=CCC/C(C)=C/CC/C(C)=C/CNC(=O)C(COP(=O)(O)O)C(=O)O (centres undefined)

IC50 (Farnesyltransferase): 5 µM
SMILES: CCCCC(C)/C=C(C)/C=C(\C)CC(=O)NC1=CC(O)(/C=C/C=C/C=C/C(=O)NC2=C(O)CCC2=O)C2OC2C1=O (centres undefined)

Concentration [3]: 1 µM
Ki [4]: 0.0052 µM
SMILES: CC(C)=CCC/C(C)=C/CC/C(C)=C/C(O)P(=O)(O)O (centres undefined)

IC50 [2]: 0.19 µM
SMILES: CCCCCCCC/C=C\CCCCCC/C(C(=O)O)=C(\C)C(=O)O [CHAETOMELLIC ACID B]

Further lines, the compound ahead of its results:

SMILES: CC(C)=CCC/C(C)=C/CC/C(C)=C/CONC(=O)CP(=O)(O)OCOC(=O)C(C)(C)C
IC50 [1]: 2.61 µM

SMILES: CC[C@H](C)[C@H](NC[C@@H](NC[C@@H](N)CS)[C@@H](C)CC)C(=O)N[C@@H](CCO)C(=O)O
IC50 [5]: 0.018 µM
IC50 [6]: > 10 µM

SMILES: CCC(C)[C@@H](CO[C@@H](Cc1ccccc1)C(=O)N[C@@H](CCS(C)(=O)=O)C(=O)OC)NC[C@@H](N)CS (some centres undefined)
IC50 [5]: 0.24 µM
IC50 (NIH3T3 [7]): 10 µM

SMILES: O=C(N[C@H](Cc1c[nH]cn1)C(=O)N[C@@H](Cc1ccc(OCc2ccccc2)cc1)C(=O)NCCOCc1ccccc1)OCc1ccccc1
Concentration [3]: 5 µM

SMILES: C[C@@H](NC(=O)[C@H](Cc1c[nH]c2ccccc12)NC(=O)[C@H](COCc1ccccc1)NC(=O)[C@H](Cc1ccc(OCc2ccccc2)cc1)NC(=O)[C@H](Cc1c[nH]cn1)NC(=O)OCc1ccccc1)C(N)=O
IC50 [8]: 0.42 µM

SMILES: COC(=O)C1=CC(CO)=COc2oc3cccc(O)c3c(=O)c21 [FUSIDIENOL]
IC50 [5]: 1 µM

SMILES: CN1C(=O)[C@]23CC4=CC=C[C@H](O)[C@H]4N2C(=O)[C@@]1(CO)SS3 [GLIOTOXIN]
IC50 [1]: 1.1 µM
Concentration [10]: 6.3 mg/kg

SMILES: CSC[C@H](NC(=O)c1cccc(CNC(=O)[C@@H](N)CS)c1)C(=O)O
IC50 [11]: 0.12 µM
IC50 [12]: 0.06 µM

SMILES: CSCC[C@H](NC(=O)[C@@H]1Cc2ccccc2CN1C(=O)[C@@H](NCCc1cnc[nH]1)C(C)C)C(=O)O
IC50 [13]: 0.00079 µM
IC50 (NIH3T3 [14]): 3.8 µM

SMILES: C[C@@H](NC(=O)[C@H](Cc1c[nH]c2ccccc12)NC(=O)[C@H](COCc1ccccc1)NC(=O)[C@H](Cc1ccc(OCc2ccccc2)cc1)NC(=O)[C@@H](Cc1c[nH]cn1)NC(=O)OCc1ccccc1)C(N)=O (Cbz-[dH]Y(Bn)S(Bn)W[dA]-NH2)
IC50 [1]: 0.02 µM
Concentration [3]: 25 µM

SMILES: O=C(CN(Cc1ccc(OCc2ccccc2)cc1)C(=O)[C@H](Cc1c[nH]cn1)NC(=O)OCc1ccccc1)NCCc1ccccc1
IC50 [1]: 0.17 µM
Concentration [3]: 0.1 µM
IC50 (NIH3T3 [15]): 4.4 µM
ILS (Mus musculus): 35%

SMILES: CSCC[C@H](NC(=O)[C@H](/C=C\[C@@H](/C=C/[C@@H](N)CS)C(C)C)Cc1ccccc1)C(=O)O
inhibition in vivo at 100 mg/kg (Homo sapiens): 60%
IC50 [16]: 0.011 µM

SMILES: O=C1C=C[C@]23Oc4ccc(O)c5c4[C@](Oc4cccc1c42)(O3)C1OC1C5=O (some centres undefined) [PREUSSOMERIN]
IC50 [5]: 1.2 µM

SMILES: CN(C(=O)[C@@H](Cc1c[nH]cn1)NC(=O)OCc1ccccc1)[C@@H](Cc1ccc(OCc2ccccc2)cc1)C(=O)NCCOCc1ccccc1
Concentration [3]: 2.5 µM

SMILES: CCC(C)[C@@H](CO[C@@H](Cc1ccccc1)C(=O)N[C@@H](CCS(C)(=O)=O)C(=O)O)NC[C@@H](N)CS (some centres undefined)
IC50 [5]: 0.24 µM
